Source: patent publication US20250268826A1, “IONIZABLE LIPIDOID COMPOSITIONS AND THERAPEUTIC USES THEREOF” (Flagship Pioneering Innovations VII, LLC, priority 2023, published 2025)
Several values for one entry are separate records, joined by “and”; a condition that tells them apart may be missing. Equal entries are not always repeated.

Experiments:
Format in all cases: physicochemical
[1] = Encapsulation efficiency (EE %) by fluorescence based Ribogreen assay
[2] = LNP size and polydispersity index (PDI) by dynamic light scattering (DLS)
[3] = LNP Zeta potential measured using a Zetasizer (Malvern)
[4] = Table 1, LNP lipid:DSPC:Cholesterol:DMG-PEG2k 50:10:38.5:1.5 mol %, hEPO mRNA, N:P 6
[5] = Table 2, LNP 20:10:68.5:1.5 mol %, EGFP mRNA, N:P 2.4
[6] = Table 2, LNP 20:40:38.5:1.5 mol %, EGFP mRNA, N:P 2.4
[7] = Table 2, LNP 30:10:58.5:1.5 mol %, EGFP mRNA, N:P 3.6
[8] = Table 2, LNP 30:30:38.5:1.5 mol %, EGFP mRNA, N:P 3.6
[9] = Table 2, LNP 40:10:48.5:1.5 mol %, EGFP mRNA, N:P 4.8
[10] = Table 2, LNP 40:20:38.5:1.5 mol %, EGFP mRNA, N:P 4.8
[11] = Table 2, LNP 50:10:38.5:1.5 mol %, EGFP mRNA, N:P 6
[12] = Table 3, LNP 50:10:38.5:1.5 mol %, hEPO mRNA, N:P 6
[13] = Table 3, LNP lipid:DSPC:Cholesterol:DMG-PEG2k 50:10:38.5:1.5 mol %, hEPO mRNA, N:P 6
[14] = Table 4, LNP 40:10:48.5:1.5 mol %, hEPO mRNA, N:P 6
[15] = Table 4, LNP 40:10:48.5:1.5 mol %, hEPO mRNA, N:P 9
[16] = Table 4, LNP 40:10:48.5:1.5 mol %, hEPO mRNA, N:P 12
[17] = Table 4, LNP 50:10:38.5:1.5 mol %, hEPO mRNA, N:P 6
[18] = Table 4, LNP 50:10:38.5:1.5 mol %, hEPO mRNA, N:P 9
[19] = Table 4, LNP 50:10:38.5:1.5 mol %, hEPO mRNA, N:P 12
[20] = Table 4, LNP 60:0:38.5:1.5 mol %, hEPO mRNA, N:P 6
[21] = Table 4, LNP 60:0:38.5:1.5 mol %, hEPO mRNA, N:P 9
[22] = Table 4, LNP 60:0:38.5:1.5 mol %, hEPO mRNA, N:P 12

CCCCCCCCCCCC(=O)OCCN(CCOC(=O)CCCCCCCCCCC)C(=O)C(C)N (stereo not drawn) [Compound 109]
Encapsulation Efficiency % [1, 4]: 97.6%
PDI [2, 4]: 0.557
Size [2, 4]: 90.7 nm
Zeta potential [3, 4]: 8.911 mV

CCCCCCCCCC(=O)OCCN(CCOC(=O)CCCCCCCCC)C(=O)C(C)N (stereo not drawn) [Compound 110]
Encapsulation Efficiency % [1, 4]: 98%
PDI [2, 4]: 0.069
Size [2, 4]: 57.7 nm
Zeta potential [3, 4]: −4.943 mV

CCCCCCCCC(CCCCCC)C(=O)OCCN(CCOC(=O)C(CCCCCC)CCCCCCCC)C(=O)C(C)N (stereo not drawn) [Compound 111]
Encapsulation Efficiency % [1, 4]: 95.9%
Encapsulation Efficiency % [1, 5]: 99.7%
Encapsulation Efficiency % [1, 6]: 99.3%
Encapsulation Efficiency % [1, 7]: 99.8%
Encapsulation Efficiency % [1, 8]: 99.2%
Encapsulation Efficiency % [1, 9]: 99.7%
Encapsulation Efficiency % [1, 10]: 99.6%
Encapsulation Efficiency % [1, 11]: 99.4% and 99.8%
Encapsulation Efficiency % [1, 12]: 98.1%
PDI [2, 4]: 0.223
Size [2, 4]: 93.4 nm
PDI [2, 5]: 0.129
PDI [2, 6]: 0.095
PDI [2, 7]: 0.082
PDI [2, 8]: 0.117
PDI [2, 9]: 0.038
PDI [2, 10]: 0.136
PDI [2, 11]: 0.235 and 0.253
Size ([2]; Table 2, LNP lipid:DSPC:Cholesterol:DMG-PEG2k 20:10:68.5:1.5 mol %, EGFP mRNA, N:P 2.4): 57.5 nm
Size ([2]; Table 2, LNP lipid:DSPC:Cholesterol:DMG-PEG2k 20:40:38.5:1.5 mol %, EGFP mRNA, N:P 2.4): 69.2 nm
Size ([2]; Table 2, LNP lipid:DSPC:Cholesterol:DMG-PEG2k 30:10:58.5:1.5 mol %, EGFP mRNA, N:P 3.6): 46.5 nm
Size ([2]; Table 2, LNP lipid:DSPC:Cholesterol:DMG-PEG2k 30:30:38.5:1.5 mol %, EGFP mRNA, N:P 3.6): 57 nm
Size ([2]; Table 2, LNP lipid:DSPC:Cholesterol:DMG-PEG2k 40:10:48.5:1.5 mol %, EGFP mRNA, N:P 4.8): 44.1 nm
Size ([2]; Table 2, LNP lipid:DSPC:Cholesterol:DMG-PEG2k 40:20:38.5:1.5 mol %, EGFP mRNA, N:P 4.8): 48.2 nm
Size ([2]; Table 2, LNP lipid:DSPC:Cholesterol:DMG-PEG2k 50:10:38.5:1.5 mol %, EGFP mRNA, N:P 6): 110.9 nm and 106 nm
PDI [2, 12]: 0.27
Size [2, 13]: 100.9 nm
Zeta potential [3, 4]: −3.357 mV
Zeta potential [3, 5]: −6.2 mV
Zeta potential [3, 6]: −8.876 mV
Zeta potential [3, 7]: −4.4 mV
Zeta potential [3, 8]: −9.169 mV
Zeta potential [3, 9]: −6.9 mV
Zeta potential [3, 10]: −8.503 mV

CCCCCCCC/C=C\CCCCCCCC(=O)OCCN(CCOC(=O)CCCCCCC/C=C\CCCCCCCC)C(=O)C(N)Cc1ccccc1 (stereo not drawn) [Compound 113]
Encapsulation Efficiency % [1, 4]: 95.2%
Encapsulation Efficiency % [1, 12]: 99.7%
PDI [2, 4]: 0.126
Size [2, 4]: 79.1 nm
PDI [2, 12]: 0.068
Size [2, 13]: 61.4 nm
Zeta potential [3, 4]: −2.878 mV

CCCCCCCCCCCC(=O)OCCN(CCOC(=O)CCCCCCCCCCC)C(=O)C(N)Cc1ccccc1 (stereo not drawn) [Compound 115]
Encapsulation Efficiency % [1, 4]: 89.5%
PDI [2, 4]: 0.291
Size [2, 4]: 70.8 nm
Zeta potential [3, 4]: −2.403 mV

CCCCCCCCC(CCCCCC)C(=O)OCCN(CCOC(=O)C(CCCCCC)CCCCCCCC)C(=O)C(N)Cc1ccccc1 (stereo not drawn) [Compound 117]
Encapsulation Efficiency % [1, 4]: 96.7%
Encapsulation Efficiency % [1, 12]: 95.1%
Encapsulation Efficiency % [1, 14]: 87.7%
Encapsulation Efficiency % [1, 15]: 98%
Encapsulation Efficiency % [1, 16]: 98.3%
Encapsulation Efficiency % [1, 17]: 96.3%
Encapsulation Efficiency % [1, 18]: 98.6%
Encapsulation Efficiency % [1, 19]: 98.2%
Encapsulation Efficiency % [1, 20]: 90.2%
Encapsulation Efficiency % [1, 21]: 92.3%
Encapsulation Efficiency % [1, 22]: 94.8%
PDI [2, 4]: 0.07
Size [2, 4]: 61.6 nm
PDI [2, 12]: 0.071
Size [2, 13]: 70.6 nm
PDI [2, 14]: 0.204
Size [2, 14]: 56.4 nm
PDI [2, 15]: 0.354
Size [2, 15]: 67.8 nm
PDI [2, 16]: 0.119
Size [2, 16]: 75.7 nm
PDI [2, 17]: 0.134
PDI [2, 18]: 0.365
Size [2, 18]: 65.3 nm
PDI [2, 19]: 0.515
Size [2, 19]: 67.8 nm
PDI [2, 20]: 0.089
Size [2, 20]: 125 nm
PDI [2, 21]: 0.018
Size [2, 21]: 123 nm
PDI [2, 22]: 0.263
Size [2, 22]: 55 nm
Size ([2]; Table 4, LNP Lipid:DSPC:Cholesterol:DMG-PEG2k 50:10:38.5:1.5 mol %, hEPO mRNA, N:P 6): 62.2 nm
Zeta potential [3, 4]: −5.265 mV
Zeta potential [3, 14]: −0.6716 mV
Zeta potential [3, 15]: −1.95 mV
Zeta potential [3, 16]: −3.302 mV
Zeta potential [3, 17]: −4.369 mV
Zeta potential [3, 18]: −2.051 mV
Zeta potential [3, 19]: −4.408 mV
Zeta potential [3, 20]: −5.393 mV
Zeta potential [3, 21]: −5.043 mV
Zeta potential [3, 22]: −5.125 mV

CCCCCCCCCCCC(=O)OCCN(CCOC(=O)CCCCCCCCCCC)C(=O)C(N)CCCCN (stereo not drawn) [Compound 121]
Encapsulation Efficiency % [1, 4]: 93.1%
Size [2, 4]: 105.4 nm
Zeta potential [3, 4]: 8.346 mV

CCCCCCCCCC(=O)OCCN(CCOC(=O)CCCCCCCCC)C(=O)C(N)CCCCN (stereo not drawn) [Compound 122]
Encapsulation Efficiency % [1, 4]: 94.2%
PDI [2, 4]: 0.259
Size [2, 4]: 71.8 nm
Zeta potential [3, 4]: 6.541 mV

CCCCCCCCC(CCCCCC)C(=O)OCCN(CCOC(=O)C(CCCCCC)CCCCCCCC)C(=O)C(N)CCCCN (stereo not drawn) [Compound 123]
Encapsulation Efficiency % [1, 4]: 97%
PDI [2, 4]: 0.338
Size [2, 4]: 83.3 nm
Zeta potential [3, 4]: −3.45 mV

CCCCCCCCCCCC(=O)OCCN(CCOC(=O)CCCCCCCCCCC)C(=O)C(N)Cc1c[nH]cn1 (stereo not drawn) [Compound 127]
Encapsulation Efficiency % [1, 4]: 89.5%
PDI [2, 4]: 0.387
Size [2, 4]: 85.9 nm
Zeta potential [3, 4]: 6.011 mV
